Data on 22 compounds can be found in US7199120B2, “Pyrazolo-pyridine derivatives as antiherpes agents” (SmithKline Beecham Corporation, priority 2001, dated 2007).

This assay has as its system HSV-1. The assay is described as follows: HSV-1 replication in infected Vero 76 cells, viral DNA hybridization capture assay. The format is cell-based, herpes simplex virus 1. The note with it: Human alphaherpesvirus 1; HSV-1 (MOI=0.001) in Vero 76 cells, 40–48 hours incubation, chemiluminescent detection of HSV DNA. On the procedure:
Vero 76 cells were maintained in MEM with Earle's salts, L-glutamine, 8% FBS (Hyclone, A-1111-L) and 100 units/mL Penicillin-100 μg/mL Streptomycin. For assay conditions, FBS was reduced to 2%. Cells are seeded into 96-well tissue culture plates at a density of 5×10^4 cells/well after being incubated for 45 min at 37° C. in the presence of HSV-1 or HSV-2 (MOI=0.001). Test compounds are added to the wells and the plates are incubated at 37° C. for 40–48 hours. Cell lysates are prepared as follows: media was removed and replaced with 150 μL/well 0.2 N NaOH with 1% Igepal CA 630 or NP-40. Plates were incubated up to 14 days at room temperature in a humidified chamber to prevent evaporation.
For the detection probe, a gel-purified, digoxigenin-labeled, 710-bp PCR fragment of the HSV UL-15 sequence was utilized. PCR conditions included 0.5 μM primers, 180 μM dTTP, 20 μM dUTP-digoxigenin (Boehringer Mannheim 1558706), 200 μM each of dATP, dCTP, and dGTP, 1×PCR Buffer II (Perkin Elmer), 2.5 mM MgCl2, 0.025 units/μL of AmpliTaq Gold polymerase (Perkin Elmer), and 5 ng of gel-purified HSV DNA per 100 μL Extension conditions were 10 min at 95° C., followed by 30 cycles of 95° C. for 1 min, 55° C. for 30 sec, and 72° C. for 2 min. The amplification was completed with a 10-min incubation at 72° C. Primers were selected to amplify a 728 bp probe spanning a section of the HSV1 UL15 open reading frame (nucleotides 249–977). Single-stranded transcripts were purified with Promega M13 Wizard kits. The final product was mixed 1:1 with a mixture of 6 M GuSCN, 100 mM EDTA and 200 μg/mL herring sperm DNA and stored at 4° C.
The capture DNA plasmid (HSV UL13 region in pUC) was linearized by cutting with Xba I, denatured for 15 min at 95° C. and diluted immediately into Reacti-Bind DNA Coating Solution (Pierce, 17250, diluted 1:1 with TE buffer, pH 8) at 1 ng/μL 75 μL/well were added to Corning (#3922 or 9690) white 96-well plates and incubated at room temperature for at least 4 hrs before washing twice with 300 μL/well 0.2×SSC/0.05% Tween-20 (SSC/T buffer). The plates were then incubated overnight at room temperature with 150 μL/well 0.2 N NaOH, 1% IGEPAL and 10 μg/mL herring sperm DNA.
Twenty-seven (27) μL of cell lysate was combined with 45 μL of hybridization solution (final concentration: 3M GuSCN, 50 mM EDTA, 100 μg/ml salmon sperm DNA, 5× Denhardt's solution, 0.25×APE, and 5 ng of the digoxigenin-labeled detection probe). APE is 1.5 M NH4-acetate, 0.15 M ammonium phosphate monobasic, and 5 mM EDTA adjusted to pH 6.0. Mineral oil (50 μL) was added to prevent evaporation. The hybridization plates were incubated at 95° C. for 10 minutes to denature the DNA, then incubated at 42° C. overnight. The wells were washed 6× with 300 μl/well SSC/T buffer then incubated with 75 μL/well anti-digoxigenin-HRP-conjugated antibody (Boehringer Mannheim 1207733, 1:5000 in TE) for 30 min at room temperature. The wells were washed 6× with […] with PBS/0.05% Tween-20 before 75 μL/well SuperSignal LBA substrate (Pierce) was added. The plates were incubated at room temperature for 30 minutes and chemiluminescence was measured in a Wallac Victor reader.
A word on the IC50: it is the concentration needed to halve the response being measured. A higher IC50 goes with lower potency. `Brc1ccc(-c2nn3c(NC4CCCC4)cccc3c2-c2ccnc(NC3CCCC3)n2)o1` [Example 27, 2-(5-Bromo-2-furyl)-N-cyclopentyl-3-[2-(cyclopentylamino)-4-pyrimidinyl]pyrazolo[1,5-a]pyridin-7-amine] returned an IC50 of 500 nM.
The compound `c1cc(NC2CC2)n2nc(-c3ccnc(NC4CC4)n3)c(-c3ccnc(NC4CC4)n3)c2c1` [Example 9, N-Cyclopropyl-2,3-bis[2-(cyclopropylamino)pyrimidin-4-yl]pyrazolo[1,5-a]pyridin-7-amine] showed an IC50 of 23000 nM.
Next, `Cc1ccoc1-c1nn2c(NC3CC3)cccc2c1-c1ccnc(NC2CC2)n1` [Example 24, N-Cyclopropyl-3-[2-(cyclopropylamino)-4-pyrimidinyl]-2-(3-methyl-2-furyl)pyrazolo[1,5-a]pyridin-7-amine]: 5000 nM.
Next, `c1cc(NC2CCCC2)n2nc(-c3ccncc3)c(-c3ccnc(NC4CCCC4)n3)c2c1` [Example 1, N-Cyclopentyl-3-[2-(cyclopentylamino)-4-pyrimidinyl]-2-(4-pyridinyl)pyrazolo[1,5-a]pyridin-7-amine]: 1500 nM; `c1cc(NC2CCCC2)n2nc(-c3ccnc(NC4CCCC4)n3)c(-c3ccnc(NC4CCCC4)n3)c2c1` [Example 6, N-Cyclopentyl-2,3-bis[2-(cyclopentylamino)-4-pyrimidinyl]pyrazolo[1,5-a]pyridin-7-amine]: 400 nM.
Next, `CC(C)Nc1cc(-c2nn3c(NC(C)C)cccc3c2-c2ccnc(NC3CCCC3)n2)ccn1` [Example 19, 3-[2-(Cyclopentylamino)-4-pyrimidinyl]-N-isopropyl-2-[2-(isopropylamino)-4-pyridinyl]pyrazolo[1,5-a]pyridin-7-amine]: 700 nM.
`c1cncc(-c2nn3c(NC4CCCC4)cccc3c2-c2ccnc(NC3CCCC3)n2)c1` [Example 3, N-cyclopentyl-3-[2-(cyclopentylamino)-4-pyrimidinyl]-2-(3-pyridinyl)pyrazolo[1,5-a]pyridin-7-amine]: the IC50 stood at 600 nM. The IC50 values of the last two compounds are within 1.5-fold of each other.
Next, `CC(C)Nc1nccc(-c2c(-c3ccnc(NC4CCCC4)c3)nn3c(NC4CCCC4)cccc23)n1` [Example 18, N-Cyclopentyl-2-[2-(cyclopentylamino)-4-pyridinyl]-3-[2-(isopropylamino)-4-pyrimidinyl]pyrazolo[1,5-a]pyridin-7-amine]: 1000 nM; `c1coc(-c2nn3c(NC4CCCC4)cccc3c2-c2ccnc(NC3CCCC3)c2)c1` [Example 21, N-Cyclopentyl-3-[2-(cyclopentylamino)-4-pyridinyl]-2-(2-furyl)pyrazolo[1,5-a]pyridin-7-amine]: 500 nM; `CC(C)Nc1nccc(-c2nn3c(NC(C)C)cccc3c2-c2ccnc(NC(C)C)n2)n1` [Example 13, N-Isopropyl-2,3-bis[2-(isopropylamino)pyrimidin-4-yl]pyrazolo[1,5-a]pyridin-7-amine]: 3300 nM.
The result for `Cc1ccoc1-c1nn2c(NC3CCCC3)cccc2c1-c1ccnc(NC2CCCC2)n1` [Example 22, N-Cyclopentyl-3-[2-(cyclopentylamino)-4-pyrimidinyl]-2-(3-methyl-2-furyl)pyrazolo[1,5-a]pyridin-7-amine] reads 200 nM; that for `Cc1nc(-c2nn3c(NC4CCCC4)cccc3c2-c2ccnc(NC3CCCC3)c2)cs1` [Example 28, N-Cyclopentyl-3-[2-(cyclopentylamino)-4-pyridinyl]-2-(2-methyl-1,3-thiazol-4-yl)pyrazolo[1,5-a]pyridin-7-amine], 1700 nM.
Next, `c1coc(-c2nn3c(NC4CCCC4)cccc3c2-c2ccnc(NC3CCCC3)n2)c1` [Example 25, N-Cyclopentyl-3-[2-(cyclopentylamino)-4-pyrimidinyl]-2-(2-furyl)pyrazolo[1,5-a]pyridin-7-amine]: 500 nM; `c1cc(N2CCOCC2)n2nc(-c3ccnc(N4CCOCC4)n3)c(-c3ccnc(N4CCOCC4)n3)c2c1` [Example 10]: 33000 nM.
Regarding `c1ccc(CNc2nccc(-c3nn4c(NCc5ccccc5)cccc4c3-c3ccnc(NCc4ccccc4)n3)n2)cc1` [Example 12, N-Benzyl-2,3-bis[2-(benzylamino)pyrimidin-4-yl]pyrazolo[1,5-a]pyridin-7-amine], the half-maximal inhibitory concentration (IC50) was 36000 nM.
The compound `Cc1ccoc1-c1nn2c(NC3CCCC3)cccc2c1-c1ccnc(NC2CC2)n1` [Example 23, N-Cyclopentyl-3-[2-(cyclopropylamino)-4-pyrimidinyl]-2-(3-methyl-2-furyl)pyrazolo[1,5-a]pyridin-7-amine] gave an IC50 of 800 nM.
Next, `CC(C)Nc1cc(-c2nn3c(NC(C)C)cccc3c2-c2ccnc(NC3CC3)n2)ccn1` [Example 17, 3-[2-(Cyclopropylamino)-4-pyrimidinyl]-N-isopropyl-2-[2-(isopropylamino)-4-pyridinyl]pyrazolo[1,5-a]pyridin-7-amine]: 2900 nM; `c1coc(-c2nn3c(NC4CC4)cccc3c2-c2ccnc(NC3CCCC3)n2)c1` [Example 26, 3-[2-(Cyclopentylamino)-4-pyrimidinyl]-N-cyclopropyl-2-(2-furyl)pyrazolo[1,5-a]pyridin-7-amine]: 1400 nM; `c1ccn2nc(-c3ccnc(NC4CCCC4)n3)c(-c3ccnc(NC4CCCC4)n3)c2c1` [Example 4, N-Cyclopentyl-N-(4-{2-[2-(cyclopentylamino)-4-pyrimidinyl]pyrazolo[1,5-a]pyridin-3-yl]-2-pyrimidinyl)amine]: 3100 nM.
The result for `CCCCNc1nccc(-c2nn3c(NCCCC)cccc3c2-c2ccnc(NCCCC)n2)n1` [Example 8, N-Butyl-2,3-bis[2-(butylamino)pyrimidin-4-yl]pyrazolo[1,5-a]pyridin-7-amine] reads 800 nM; that for `CC(C)Nc1cc(-c2nn3c(NC4CCCC4)cccc3c2-c2ccnc(NC3CCCC3)n2)ccn1` [Example 20, N-Cyclopentyl-3-[2-(cyclopentylamino)-4-pyrimidinyl]-2-[2-(isopropylamino)-4-pyridinyl]pyrazolo[1,5-a]pyridin-7-amine], 500 nM.
`CC(C)CNc1nccc(-c2nn3c(NCC(C)C)cccc3c2-c2ccnc(NCC(C)C)n2)n1` [Example 11, N-Isobutyl-2,3-bis[2-(isobutylamino)pyrimidin-4-yl]pyrazolo[1,5-a]pyridin-7-amine] returned a concentration for half-maximal inhibition (IC50) of 1600 nM.
